Results taken from patent US20050042316A1, “Attractants for moths” (priority 2001, published 2005).

Legend:
H. armigera moths = assay: two-choice olfactometer, moths entering the test chamber; assay type: in vivo, Helicoverpa armigera; conditions: for attractiveness in the olfactometer: blend complexity studies, FIG. 8; for optimum concentration in the olfactometer: formulated in Sirene base, FIG. 6
Source text: The design of our olfactometer (FIG. 1) has been described by Gregg et al. (1998) and is similar to that of Beerwinkle et al. (1996). The olfactometer is a two-choice system in which moths choose between two airstreams. One carries either a bouquet (about 200 g) of freshly cut plant stems with their bases in a flask of water, or plant volatiles formulated and presented as described below (the test chamber). The other carries clean air (the control chamber). Each run normally uses 50 moths, and runs are normally replicated three times for each sex and each attractant. Thus, olfactometer data points are usually each based on the responses of 150 moths. Moths are laboratory-reared, unmated and aged 1-4 (usually 2-3) days. We use two criteria for attractiveness, the test % (percentage of the total 150 moths which enter the test chamber), and success rate (number entering the test chamber relative to those entering the control chamber). The former is our primary criterion, and is the one presented here. Data are analysed using Zar's procedure for multiple comparison of proportions. With N=150, the minimum significant difference between two percentages using-this procedure is about 8%.
For testing single chemicals in the olfactometer early in the project, we dissolve the synthetic chemical in canola oil at a concentration of 10%. 200 μl of this is absorbed into a cotton dental wick which is placed in the test airstream of the olfactometer. These lures are changed every 2 h during olfactometer runs. Later tests of single chemicals to determine the effects of varying concentration are done using Sirene formulations, as discussed below.
For testing chemical blends in the olfactometer and in field trapping experiments, we are formulating in Sirene, a mixture of anti-oxidants and UV protectants which was developed by Novartis for attract-and-kill of several moth species using pheromones, and for which IPM Technologies Ltd have worldwide marketing and development rights. Chemicals are mixed into Sirene in the barrel of a syringe using a slow (4 rpm) broad-bladed propeller, which stirs the highly viscous material for 3 h. Formulations are then stored at 40 C in the sealed syringe for periods of up to 2 weeks. Sirene formulations are tested in the olfactometer by placing about 100 mg on a horizontal square (1×1 cm) of plastic (Corflute®), which is then placed on a pin in the test airstream of the olfactometer. For field testing, the plastic square carrying the formulation is held horizontally under the lid of the AgriSense trap, in the same position that a pheromone lure would be, using a screw.

moths = assay: laboratory feeding studies with ingestible formulations; assay type: in vivo; conditions: 1% toxicant in ingestible formulations
Procedure: To determine whether moths will feed on the ingestible formulations, and whether they die as a result, we place a single moth in a 1 litre plastic container which has 50 μl of the formulation as a single droplet in a beer bottle cap, on the bottom of the container. In some experiments laboratory-reared moths are used in a constant 25° C. reverse-cycle system. In others natural cycle laboratory moths are used in containers placed outdoors. Moths are observed at regular intervals and dead ones removed for dissection. At the end of the scotophase all surviving moths are removed and after a further hour are dissected.
In these studies small droplets (50-100 μl) were placed in a 1 litre container with the moths, so they spent the night in close proximity (within 10 cm) of the droplet.

Lab reared female moths = assay: field wind tunnel trials; assay type: in vivo; conditions: trial 8, Yanco, 0.5% methomyl
Procedure: These are used to observe behavioural responses of moths around lures, and to record kill rates of different blends and formulations, in semi-natural conditions. Clear polythene is stretched around a series of steel hoops 1.2 m in diameter which are suspended from a horizontal pipe Flywire is placed over each end. The wind tunnels are hung just above ground level and oriented parallel to the prevailing wind. Lures (3 bottle tops containing 100-200 μl of the attractant under test) are placed on a plastic dinner plate in the upwind end and 20-50 moths are released into the downwind end about 1 h before sunset. Lab reared female moths produced under natural photoperiod are used. Behavioural responses are observed using night vision glasses. In the morning both live and dead moths are collected and dissected to determine from the presence of green dye whether they have fed on the lure.

Helicoverpa spp. = assay: field trapping trials with AgriSense traps; assay type: in vivo; conditions: for Peak catch % of phero / Whole experiment Lure N: Downs
Source text: For field tests of the attractiveness of different blends we use AgriSense pheromone traps of the canister type (Gregg and Wilson 1991). Traps are usually cleared three times weekly, and the catch sorted. Moths are sexed and the females dissected to determine mated status. We normally test 5 formulations at a time, replicated 4 times, so there are 4 rows of 5 traps, each row containing one replicate of each formulation. Traps are spaced 50 m apart and are rotated, within a row, between catch intervals. Experiments are analysed as Latin squares. Field trials at Cecil Plains were conducted in soybeans, cotton, chickpea, wheat, fallow land and sunflower, and at Kununurra and China, in cotton.
These trials have been done at different times, and in different areas, different crops and different weather conditions. In some cases the conditions have been less than optimal. Examples include the Twynam 1, 2 and 3 trials in the Ord River, where night temperatures were often too low for moth activity, and the last two Wamara trials in 2000 where moth numbers in the district were extremely low. Because of these differences it is not possible to directly compare the numbers of moths caught between trials. We have therefore expressed the results as a percentage of the pheromone traps run in the same experiments. This percentage has been calculated on the catch interval with the highest volatile catches. We do this because the residual life of some volatiles is short and some formulations probably lose attractiveness during the course of the trials, whereas the pheromone release rate remains relatively constant. PBE1 was also included in almost all of these trials, as a standard plant volatile blend. The unweighted average catch of PBE1, across all trials, was 5.8% of the pheromone catch. Though PBE1 and some other volatile formulations occasionally caught up to 15-33% of the corresponding pheromone catch, when this occurred the overall numbers of moths were low, so the results are statistically unreliable.

[1] = single chemicals in Sirene formulations
[2] = single chemicals, 10% in canola oil, females, FIG. 5
[3] = Wamara3 Soybean, 20 Feb-12 Mar 99

OCCc1ccccc1 [2-phenylethanol]
test % (H. armigera moths; 2% concentration in Sirene): 26.4% | attractiveness in the olfactometer (H. armigera moths): significantly attractive | test % (H. armigera moths; in canola oil): 29% | attraction in the olfactometer (statistical significance) (H. armigera moths; [1]): confirmed | attraction in the olfactometer (statistical significance) (H. armigera moths; [2]): statistically significant levels of attraction

CC1=CCC2C(C1)C2(C)C (stereo not shown) [Blend 3-carene, 3-carene]
attraction in the olfactometer (statistical significance) (H. armigera moths; [2]): statistically significant levels of attraction

CC/C=C\CCOC(C)=O [Z-3-hexenyl acetate]
attraction in the olfactometer (statistical significance) (H. armigera moths; [2]): statistically significant levels of attraction

CC/C=C\CCOC(=O)c1ccccc1O [Z-3-hexenyl salicylate]
test % (H. armigera moths; 2% concentration in Sirene): 26.7% | attractiveness in the olfactometer (H. armigera moths): significantly attractive on its own | test % (H. armigera moths; in canola oil): 33.8% | attraction in the olfactometer (statistical significance) (H. armigera moths; [1]): confirmed | attraction in the olfactometer (statistical significance) (H. armigera moths; [2]): statistically significant levels of attraction

OCc1ccccc1 [benzyl alcohol]
optimum concentration in the olfactometer (H. armigera moths): about 1% | attraction in the olfactometer (statistical significance) (H. armigera moths; [1]): confirmed | attraction in the olfactometer (statistical significance) (H. armigera moths; [2]): statistically significant levels of attraction

CNC(=O)Oc1cccc2ccccc12 [carbaryl]
% killed, summary of trials (moths): 69-94%

CC(C)=CCC/C(C)=C/CO [geraniol]
attraction in the olfactometer (statistical significance) (H. armigera moths; [2]): statistically significant levels of attraction

C=C(C)[C@H]1CC=C(C)CC1 [limonene]
attractiveness in the olfactometer (H. armigera moths): statistically significant | attraction in the olfactometer (statistical significance) (H. armigera moths; [2]): statistically significant levels of attraction

CNC(=O)ON=C(C)SC [methomyl]
% killed, summary of trials (moths): killed all moths

C=CCc1ccc(OC)c(OC)c1 [methyl eugenol]
optimum concentration in the olfactometer (H. armigera moths): about 2%

O=CCc1ccccc1 [phenylacetaldehyde]
% killed (Lab reared female moths; attractant at 2%): 33.3 b % | N killed (Lab reared female moths; attractant at 2%): 14 | % killed (Lab reared female moths; attractant at 8%): 25.6 b % | N killed (Lab reared female moths; attractant at 8%): 11 | Peak catch % of phero (Helicoverpa spp.; Wamara1Soybean, 1-30 Jan 99): 0.4% | Whole experiment Lure N (Helicoverpa spp.; Wamara1Soybean, 1-30 Jan 99): 10 | Peak catch % of phero (Helicoverpa spp.; Wamara2 Soybean, 13-19 Feb 99): 1.1% | Whole experiment Lure N (Helicoverpa spp.; Wamara2 Soybean, 13-19 Feb 99): 5 | Peak catch % of phero (Helicoverpa spp.; [3]): 3.1% | Whole experiment Lure N (Helicoverpa spp.; [3]): 8 | catch in field traps, in words (Helicoverpa spp.; field trapping trials): caught very few moths | catch relative to the PBE1 catch (Helicoverpa spp.; third direct comparison with PBE1): less than a quarter | attractiveness in the olfactometer (H. armigera moths): significantly attractive | optimum concentration in the olfactometer (H. armigera moths): about 1% | attraction in the olfactometer (statistical significance) (H. armigera moths; [1]): confirmed | attraction in the olfactometer (statistical significance) (H. armigera moths; [2]): statistically significant levels of attraction
